Target: recombinant EZH2-641F complex (EZH2 Y641F/EED/SUZ12/RbAp48/AEBP2) (Homo sapiens (Human), UniProt Q15910, Y641F)
Test: EZH2 Histone Methyl Transferase Assay (scintillation proximity assay)
Type: biochemical
Conditions: 350 nM histone peptide substrate, 500 nM 3H-SAM, 3 hours room temperature
Procedure, shortened: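 Radiometric SPA with EZH2 Y641F/EED/SUZ12/RbAp48/AEBP2 complex (5 nM pure or 15 nM in-house), 350 nM biotinylated K(Me2) histone peptide and 500 nM [3H]-SAM in Tris pH 9.0, 3 h at room temperature. Compounds were tested at eleven concentrations; EC50 came from non-linear regression.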

Sequence of recombinant EZH2-641F complex (EZH2 Y641F/EED/SUZ12/RbAp48/AEBP2) (Q15910 whole entry Y641F): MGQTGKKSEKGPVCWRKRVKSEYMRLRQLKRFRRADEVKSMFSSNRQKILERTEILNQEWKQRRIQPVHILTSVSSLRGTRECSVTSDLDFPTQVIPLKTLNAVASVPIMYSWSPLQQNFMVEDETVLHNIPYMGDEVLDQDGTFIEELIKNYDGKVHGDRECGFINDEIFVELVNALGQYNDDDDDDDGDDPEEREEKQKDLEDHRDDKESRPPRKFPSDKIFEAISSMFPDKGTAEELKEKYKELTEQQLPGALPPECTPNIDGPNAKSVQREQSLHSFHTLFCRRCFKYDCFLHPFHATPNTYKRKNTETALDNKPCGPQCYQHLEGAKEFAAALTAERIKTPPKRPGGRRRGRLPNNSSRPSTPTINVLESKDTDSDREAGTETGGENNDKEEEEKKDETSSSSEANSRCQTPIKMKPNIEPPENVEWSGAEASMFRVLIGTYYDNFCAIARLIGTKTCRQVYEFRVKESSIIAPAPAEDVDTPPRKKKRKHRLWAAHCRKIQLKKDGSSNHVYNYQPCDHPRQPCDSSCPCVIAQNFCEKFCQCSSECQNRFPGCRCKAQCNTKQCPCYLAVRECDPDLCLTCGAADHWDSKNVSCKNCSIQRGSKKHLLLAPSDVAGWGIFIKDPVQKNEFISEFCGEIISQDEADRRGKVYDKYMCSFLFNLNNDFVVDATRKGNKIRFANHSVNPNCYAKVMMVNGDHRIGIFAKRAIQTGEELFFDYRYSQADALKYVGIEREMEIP
Sequence of recombinant EZH2-641F complex (EZH2 Y641F/EED/SUZ12/RbAp48/AEBP2) (O75530 whole entry partner): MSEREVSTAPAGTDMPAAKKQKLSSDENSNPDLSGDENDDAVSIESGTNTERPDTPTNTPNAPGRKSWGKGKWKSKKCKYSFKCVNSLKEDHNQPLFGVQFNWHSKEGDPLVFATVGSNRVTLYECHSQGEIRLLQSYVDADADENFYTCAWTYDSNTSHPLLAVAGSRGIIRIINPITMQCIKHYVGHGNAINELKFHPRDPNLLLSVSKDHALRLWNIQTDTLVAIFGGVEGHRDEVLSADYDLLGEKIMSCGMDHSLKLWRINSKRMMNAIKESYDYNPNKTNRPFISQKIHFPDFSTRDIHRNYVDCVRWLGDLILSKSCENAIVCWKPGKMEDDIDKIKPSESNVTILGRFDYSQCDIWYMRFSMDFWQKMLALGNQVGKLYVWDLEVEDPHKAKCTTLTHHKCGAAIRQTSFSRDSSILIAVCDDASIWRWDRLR
Sequence of recombinant EZH2-641F complex (EZH2 Y641F/EED/SUZ12/RbAp48/AEBP2) (Q15022 whole entry partner): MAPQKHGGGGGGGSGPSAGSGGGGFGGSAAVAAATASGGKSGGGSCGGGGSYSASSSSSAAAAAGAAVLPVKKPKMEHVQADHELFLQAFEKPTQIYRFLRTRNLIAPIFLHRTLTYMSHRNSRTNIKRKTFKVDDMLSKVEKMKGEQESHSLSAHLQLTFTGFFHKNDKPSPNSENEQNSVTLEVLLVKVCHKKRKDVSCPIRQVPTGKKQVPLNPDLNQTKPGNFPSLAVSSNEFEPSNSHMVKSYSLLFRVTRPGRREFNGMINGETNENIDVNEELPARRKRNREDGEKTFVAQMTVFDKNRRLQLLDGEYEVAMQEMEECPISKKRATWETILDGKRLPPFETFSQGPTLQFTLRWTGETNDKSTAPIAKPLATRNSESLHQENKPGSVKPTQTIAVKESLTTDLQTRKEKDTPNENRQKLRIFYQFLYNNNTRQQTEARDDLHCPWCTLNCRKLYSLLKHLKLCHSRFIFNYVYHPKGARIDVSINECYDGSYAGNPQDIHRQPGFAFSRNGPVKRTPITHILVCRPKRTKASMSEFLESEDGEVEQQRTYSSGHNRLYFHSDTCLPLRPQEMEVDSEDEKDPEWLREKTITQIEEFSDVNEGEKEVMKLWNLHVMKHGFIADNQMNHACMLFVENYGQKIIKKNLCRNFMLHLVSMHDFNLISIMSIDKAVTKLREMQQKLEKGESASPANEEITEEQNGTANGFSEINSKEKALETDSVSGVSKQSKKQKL
Sequence of recombinant EZH2-641F complex (EZH2 Y641F/EED/SUZ12/RbAp48/AEBP2) (Q09028 whole entry partner): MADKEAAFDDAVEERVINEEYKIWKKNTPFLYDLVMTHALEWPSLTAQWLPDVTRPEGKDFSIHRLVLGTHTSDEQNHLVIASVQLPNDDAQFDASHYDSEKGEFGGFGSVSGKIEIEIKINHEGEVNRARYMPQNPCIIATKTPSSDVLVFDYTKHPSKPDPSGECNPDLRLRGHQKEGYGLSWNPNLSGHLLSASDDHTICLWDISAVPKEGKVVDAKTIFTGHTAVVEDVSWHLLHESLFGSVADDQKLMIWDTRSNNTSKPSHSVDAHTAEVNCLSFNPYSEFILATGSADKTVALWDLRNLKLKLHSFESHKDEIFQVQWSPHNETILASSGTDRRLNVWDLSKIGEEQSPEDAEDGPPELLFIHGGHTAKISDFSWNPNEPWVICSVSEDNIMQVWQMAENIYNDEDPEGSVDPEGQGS
Sequence of recombinant EZH2-641F complex (EZH2 Y641F/EED/SUZ12/RbAp48/AEBP2) (Q6ZN18 whole entry partner): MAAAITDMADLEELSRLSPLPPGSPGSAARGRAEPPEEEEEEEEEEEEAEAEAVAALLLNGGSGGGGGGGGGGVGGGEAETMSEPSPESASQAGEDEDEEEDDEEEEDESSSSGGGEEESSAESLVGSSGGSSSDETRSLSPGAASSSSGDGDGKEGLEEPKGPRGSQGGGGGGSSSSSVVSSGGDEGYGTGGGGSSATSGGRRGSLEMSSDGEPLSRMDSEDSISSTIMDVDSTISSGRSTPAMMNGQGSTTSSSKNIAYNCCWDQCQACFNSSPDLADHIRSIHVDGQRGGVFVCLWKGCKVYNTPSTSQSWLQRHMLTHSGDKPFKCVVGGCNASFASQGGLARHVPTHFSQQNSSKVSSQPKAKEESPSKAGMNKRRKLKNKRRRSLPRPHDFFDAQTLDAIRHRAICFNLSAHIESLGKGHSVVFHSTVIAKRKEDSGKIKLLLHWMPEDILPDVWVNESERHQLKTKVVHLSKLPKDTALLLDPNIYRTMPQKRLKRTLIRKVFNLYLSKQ

Row | IC50 | SMILES
1 | > 1000 nM | Cc1cc(C)c(CNC(=O)c2cc(-c3ccc(CN4CCCCC4)cc3)c3c(c2)C2(CCCC2)CO3)c(=O)[nH]1 [Example 78, N-((4,6-Dimethyl-2-oxo-1,2-dihydropyridin-3-yl)methyl)-7-(4-(piperidin-1-ylmethyl)phenyl)-2H-spiro[benzofuran-3,1′-cyclopentane]-5-carboxamide]
2 | < 500 nM | Cc1cc(C)c(CNC(=O)c2cc(Br)c3c(c2)CC(C)(C)O3)c(=O)[nH]1 [Example 1, 7-Bromo-N-((4,6-dimethyl-2-oxo-1,2-dihydropyridin-3-yl)methyl)-2,2-dimethyl-2,3-dihydrobenzofuran-5-carboxamide]
3 | < 500 nM | Cc1cc(C)c(CNC(=O)c2cc3c(c(-c4cnc(N5CCN(C(=O)OC(C)(C)C)CC5)nc4)c2)OC(C)(C)C3)c(=O)[nH]1 [Example 17, t-Butyl 4-(5-(5-(((4,6-dimethyl-2-oxo-1,2-dihydropyridin-3-yl)methyl)carbamoyl)-2,2-dimethyl-2,3-dihydrobenzofuran-7-yl)pyrimidin-2-yl)piperazine-1-carboxylate]
4 | > 1000 nM | Cc1cc(C)c(CNC(=O)c2cc(Cl)c3c(c2)CC(C)(C)O3)c(=O)[nH]1 [Example 3, 7-Chloro-N-((4,6-dimethyl-2-oxo-1,2-dihydropyridin-3-yl)methyl)-2,2-dimethyl-2,3-dihydrobenzofuran-5-carboxamide]
5 | > 1000 nM | Cc1cc(C)c(CNC(=O)c2cc3c(c(-c4ccc(N5CCOCC5)nc4)c2)OC(C)C3)c(=O)[nH]1 (centres unmarked) [Example 33, N-((4,6-Dimethyl-2-oxo-1,2-dihydropyridin-3-yl)methyl)-2-methyl-7-(6-morpholinopyridin-3-yl)-2,3-dihydrobenzofuran-5-carboxamide]
